Measurements as given in EP1852441B1, “Agents that modulate EPH receptor activity” (The Burnham Institute, priority 2002, dated 2004).

What was measured:
endogenous EphA4 = molecular target: T1, endogenous EphA4 (Mus musculus, UniProt Q03137); assay: ephrin-A3 Fc induced EphA4 tyrosine phosphorylation in hippocampal slices (immunoblot); type: cell-based; settings: peptide together with ephrin-A3 Fc, micromolar concentrations
T1 construct: tyrosine phosphorylation of endogenous EphA4; from tissue; host or cells: mouse hippocampal slices
T1 sequence (Q03137 20-986): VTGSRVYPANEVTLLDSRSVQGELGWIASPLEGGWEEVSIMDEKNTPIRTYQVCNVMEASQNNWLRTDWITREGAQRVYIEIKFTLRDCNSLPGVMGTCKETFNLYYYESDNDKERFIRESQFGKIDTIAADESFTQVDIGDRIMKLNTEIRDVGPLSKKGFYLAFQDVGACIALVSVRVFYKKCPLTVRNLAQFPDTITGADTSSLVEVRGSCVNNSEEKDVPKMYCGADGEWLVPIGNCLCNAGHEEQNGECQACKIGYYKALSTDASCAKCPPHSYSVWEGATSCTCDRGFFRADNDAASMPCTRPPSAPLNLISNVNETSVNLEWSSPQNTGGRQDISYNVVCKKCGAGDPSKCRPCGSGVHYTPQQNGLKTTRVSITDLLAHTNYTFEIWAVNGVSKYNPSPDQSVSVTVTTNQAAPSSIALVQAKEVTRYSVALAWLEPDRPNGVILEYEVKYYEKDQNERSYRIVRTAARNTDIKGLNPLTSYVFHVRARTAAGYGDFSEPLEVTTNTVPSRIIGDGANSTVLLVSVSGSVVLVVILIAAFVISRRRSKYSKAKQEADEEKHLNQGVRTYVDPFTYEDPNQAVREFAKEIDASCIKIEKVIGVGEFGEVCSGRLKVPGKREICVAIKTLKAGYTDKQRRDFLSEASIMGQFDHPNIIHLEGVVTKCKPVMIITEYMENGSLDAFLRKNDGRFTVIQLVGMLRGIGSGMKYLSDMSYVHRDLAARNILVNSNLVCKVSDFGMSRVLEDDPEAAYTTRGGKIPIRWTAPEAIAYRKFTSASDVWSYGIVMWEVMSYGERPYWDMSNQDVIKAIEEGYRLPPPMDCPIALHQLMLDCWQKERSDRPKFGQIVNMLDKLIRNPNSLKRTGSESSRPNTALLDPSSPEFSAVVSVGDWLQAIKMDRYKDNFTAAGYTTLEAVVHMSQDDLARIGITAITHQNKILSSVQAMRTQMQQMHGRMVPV

MAP kinase = MAP kinase phosphorylation in HUVE cells (immunoblot); type: cell-based, human; settings: non-serum starved HUVE cells
Source text: (§1) Cell lysates were used to immunoprecipitate EphA2 as described above or probed by immunoblotting with anti-phospho-p44/p42 MAPK antibody (Cell Signaling Technology, Beverly, MA) followed by an anti-mouse IgG peroxidase-conjugated antibody (Amersham) and re-probed with an anti-ERK2 antibody (Santa Cruz Biotechnology, Santa Cruz, CA) followed by a secondary anti-rabbit IgG peroxidase-conjugated antibody (Amersham). Erk2 (p42 MAP kinase) is the major phosphorylated form present. EphA2 was immunoprecipitated (IP) and probed by immunoblotting with anti-ghosphotyrosine (PTyr) or anti-EphA2 antibodies.

neural crest cells [1] = assay: neural crest cell migration assay in trunk explants; type: cell-based, Chick; settings: 24 hours, 13 µM KYL peptide, 10 µg/ml EphA4-Fc
Protocol: (§2) In this example to address whether the EphA4-binding peptides can inhibit endogenous ephrin-EphA4 physiological function, a neural crest cell migration assay (McLennan, R. & Krull, C.E. 2002 Gene Expr 10:295-305) was utilized. […] The migration of neural crest cells was determined by staining for HNK-1 for neural crest cells and ephrin-B1 to label the caudal sclerotome. […] Neural crest cells migrated properly into the rostral sclerotome in explants treated with control Fc.

neural crest cells [2] = assay: Neural crest cell migration assay in trunk explants; type: cell-based; settings: 13 µM peptide, 24 hours, chick trunk explants
Protocol: as §2

EphA2 = EphA2 tyrosine phosphorylation and MAP kinase signaling in HUVE cells; type: cell-based, human; settings: in the absence of ephrin
Protocol: Ephin-A1 Fc was cross-linked by preincubation with 0.2 µg/ml anti-human fc antibodies for 30 minutes on ice. After stimulation, the cells were lysed in modified RIPA buffer {Ogawa, K. et al. 2000 Oncogene 19: 6043-6052). Cell lysates were immunoprecipitated with 5 µg anti-EphA2 antibody (Upstate, Lake Placid, NY), separated by SDS polyacrylamide gel electrophoresis and probed by immunobloting with peroxidase-conjugated anti-phosphotyrosine antibody (Transduction Laboratories, San Diego, CA) or anti-EphA2 antibody followed by a secondary anti-mouse IgG peroxidase-conjugated antibody (Amersham).
as §1

VTMEAINLAFPG
ephrin-A3-induced tyrosine phosphorylation of endogenous EphA4 (endogenous EphA4): antagonize

CSCC[C@H](NC(=O)[C@H](CCSC)NC(=O)[C@@H]1CCCN1C(=O)[C@@H](NC(=O)[C@H](CO)NC(=O)[C@H](CC(=O)O)NC(=O)[C@@H]1CCCN1C(=O)[C@H](Cc1ccc(O)cc1)NC(=O)[C@H](C)NC(=O)[C@H](CO)NC(=O)[C@@H](N)Cc1ccc(O)cc1)C(C)C)C(=O)N[C@@H](CO)C(=O)NCC(=O)N[C@@H](CO)C(=O)NCC(=O)N[C@@H](CO)C(=O)N[C@@H](CCCCNC(=O)CCCC[C@@H]1SC[C@@H]2NC(=O)N[C@@H]21)C(=O)O [YSA peptide]
MAP kinase activation (MAP kinase): suppresses MAP kinase activation

KYLPYWPVLSSL
ephrin-A3-induced tyrosine phosphorylation of endogenous EphA4 (endogenous EphA4): antagonize | ephrin-A3-induced tyrosine phosphorylation of endogenous EphA4 (endogenous EphA4; listed as KYL peptide): lower concentrations than the APY and VTM peptides | migration of neural crest cells (neural crest cells [1]): ectopic migration of neural crest cells into the caudal half-selerotome

KYLPYWPVLSSL [KYL peptide]
migration of neural crest cells (neural crest cells [2]): ectopic migration of neural crest cells into the caudal half-selerotome

CSCC[C@H](NC(=O)[C@H](CCSC)NC(=O)[C@@H]1CCCN1C(=O)[C@@H](NC(=O)[C@H](CO)NC(=O)[C@H](CC(=O)O)NC(=O)[C@@H]1CCCN1C(=O)[C@H](Cc1ccc(O)cc1)NC(=O)[C@H](C)NC(=O)[C@H](CO)NC(=O)[C@@H](N)Cc1ccc(O)cc1)C(C)C)C(=O)N[C@@H](CO)C(=O)O [YSA peptide]
functional effect on EphA2 (tyrosine phosphorylation, suppression of MAP kinase) (EphA2): agonist for EphA2
